Laboratory results taken from article PMC4131897 (Biochemistry, 2014).

Biological target: T1, BjPutA (proline utilization A) (Bradyrhizobium diazoefficiens, UniProt Q89E26, D779Y)
T1 sequence (Q89E26 1-999 D779Y): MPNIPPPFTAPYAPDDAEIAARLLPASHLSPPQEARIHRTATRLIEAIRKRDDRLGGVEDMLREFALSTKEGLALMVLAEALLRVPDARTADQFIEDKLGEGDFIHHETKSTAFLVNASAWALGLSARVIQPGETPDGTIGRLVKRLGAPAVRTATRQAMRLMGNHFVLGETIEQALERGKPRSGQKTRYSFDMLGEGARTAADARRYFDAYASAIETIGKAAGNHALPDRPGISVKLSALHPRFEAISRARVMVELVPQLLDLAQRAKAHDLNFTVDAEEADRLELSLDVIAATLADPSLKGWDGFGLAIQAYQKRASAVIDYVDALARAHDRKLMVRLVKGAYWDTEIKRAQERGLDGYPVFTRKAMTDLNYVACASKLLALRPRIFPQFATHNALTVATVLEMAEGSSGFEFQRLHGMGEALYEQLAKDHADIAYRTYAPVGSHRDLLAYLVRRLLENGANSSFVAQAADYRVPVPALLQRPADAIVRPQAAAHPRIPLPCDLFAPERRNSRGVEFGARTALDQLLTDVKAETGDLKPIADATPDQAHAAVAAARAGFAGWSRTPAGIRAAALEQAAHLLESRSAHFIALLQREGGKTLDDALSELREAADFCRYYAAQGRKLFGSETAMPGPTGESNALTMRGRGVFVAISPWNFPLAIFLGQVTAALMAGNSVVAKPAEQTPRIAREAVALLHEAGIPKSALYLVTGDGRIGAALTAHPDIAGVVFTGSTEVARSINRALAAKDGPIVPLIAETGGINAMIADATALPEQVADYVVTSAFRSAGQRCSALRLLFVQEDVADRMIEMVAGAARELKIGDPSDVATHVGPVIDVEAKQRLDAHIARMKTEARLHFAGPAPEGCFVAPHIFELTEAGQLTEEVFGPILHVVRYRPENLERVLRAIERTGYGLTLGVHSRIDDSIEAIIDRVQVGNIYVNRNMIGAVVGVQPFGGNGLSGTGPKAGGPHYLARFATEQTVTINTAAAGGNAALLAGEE
Experiment: intrinsic tryptophan fluorescence quenching
Format: binding

## NC(=O)c1ccc[n+]([C@@H]2O[C@H](COP(=O)(O)OP(=O)(O)OC[C@H]3O[C@@H](n4cnc5c(N)ncnc54)[C@H](O)[C@@H]3O)[C@@H](O)[C@H]2O)c1 [NAD^+]
  Kd: 650 ± 40 nM
